Measured values taken from US8030443B2, “Squamous cell carcinoma antigen-derived peptide binding to HLA-A24 molecule” (Kurume University, priority 2005, dated 2011).

System: peptide-specific IgG in sera of cancer patients and healthy donors
Experiment: Measurement of anti-peptide IgG in plasma by LUMINEX multiplexed flow cytometric assay
Format: binding, human
In short: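 Plasma diluted 1/100 incubated with peptide-coupled colour-coded beads 2 h at RT, then biotinylated goat anti-human IgG (γ-chain) 1 h and streptavidin-PE 30 min; fluorescence read by multiplexed flow cytometry, >100 counted significant. Specificity checked by three rounds of absorption on corresponding versus irrelevant SCCA peptide.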

Sequence: RFKVEESYDL (SCCA 286-295 peptide) [SCCA-derived peptide, position 286-295]
- Total: healthy donors with significant peptide-reactive IgG / donors tested (10 healthy donors, significant when fluorescence intensity exceeded 100 at 1/100 dilution): 4/10
- Total: cancer patients with significant peptide-reactive IgG / patients tested (71 cancer patients, significant when fluorescence intensity exceeded 100 at 1/100 dilution): 19/71
- Specificity of IgG reactive to the peptide (absorption assay: corresponding vs irrelevant SCCA peptide-coated wells (FIG. 3)): confirmed by absorption assay
- Fluorescence intesity (serum of Breast Ca. patient #36, 1:100 dilution): 292
- Fluorescence intesity (serum of Breast Ca. patient #37, 1:100 dilution): 54
- Fluorescence intesity (serum of Breast Ca. patient #38, 1:100 dilution): 95
- Fluorescence intesity (serum of Breast Ca. patient #39, 1:100 dilution): 117
- Fluorescence intesity (serum of Breast Ca. patient #40, 1:100 dilution): 32
- Fluorescence intesity (serum of Breast Ca. patient #41, 1:100 dilution): 321
- Fluorescence intesity (serum of Breast Ca. patient #42, 1:100 dilution): 47
- Fluorescence intesity (serum of Breast Ca. patient #43, 1:100 dilution): 58
- Fluorescence intesity (serum of Breast Ca. patient #44, 1:100 dilution): 155
- Fluorescence intesity (serum of Breast Ca. patient #45, 1:100 dilution): 80
- Fluorescence intesity (serum of Colon Ca. patient #66, 1:100 dilution): 4
- Fluorescence intesity (serum of Colon Ca. patient #67, 1:100 dilution): 35
- Fluorescence intesity (serum of Colon Ca. patient #68, 1:100 dilution): 0
- Fluorescence intesity (serum of Colon Ca. patient #69, 1:100 dilution): 8
- Fluorescence intesity (serum of Colon Ca. patient #70, 1:100 dilution): 16
- Fluorescence intesity (serum of Colon Ca. patient #71, 1:100 dilution): 45
- Fluorescence intesity (serum of Gastric Ca. patient #56, 1:100 dilution): 243
- Fluorescence intesity (serum of Gastric Ca. patient #57, 1:100 dilution): 9
- Fluorescence intesity (serum of Gastric Ca. patient #58, 1:100 dilution): 27
- Fluorescence intesity (serum of Gastric Ca. patient #59, 1:100 dilution): 258
- Fluorescence intesity (serum of Gastric Ca. patient #60, 1:100 dilution): 79
- Fluorescence intesity (serum of Gastric Ca. patient #61, 1:100 dilution): 286
- Fluorescence intesity (serum of Gastric Ca. patient #62, 1:100 dilution): 0
- Fluorescence intesity (serum of Gastric Ca. patient #63, 1:100 dilution): 7
- Fluorescence intesity (serum of Gastric Ca. patient #64, 1:100 dilution): 40
- Fluorescence intesity (serum of Gastric Ca. patient #65, 1:100 dilution): 37
- Fluorescence intesity (serum of Healthy Donor #1, 1:100 dilution): 21
- Fluorescence intesity (serum of Healthy Donor #2, 1:100 dilution): 219
- Fluorescence intesity (serum of Healthy Donor #3, 1:100 dilution): 9
- Fluorescence intesity (serum of Healthy Donor #4, 1:100 dilution): 0
- Fluorescence intesity (serum of Healthy Donor #5, 1:100 dilution): 239
- Fluorescence intesity (serum of Healthy Donor #6, 1:100 dilution): 2
- Fluorescence intesity (serum of Healthy Donor #7, 1:100 dilution): 0
- Fluorescence intesity (serum of Healthy Donor #8, 1:100 dilution): 516
- Fluorescence intesity (serum of Healthy Donor #9, 1:100 dilution): 100
- Fluorescence intesity (serum of Healthy Donor #10, 1:100 dilution): 138
- Fluorescence intesity (serum of Pancreas Ca. patient #46, 1:100 dilution): 0
- Fluorescence intesity (serum of Pancreas Ca. patient #47, 1:100 dilution): 37
- Fluorescence intesity (serum of Pancreas Ca. patient #48, 1:100 dilution): 946
- Fluorescence intesity (serum of Pancreas Ca. patient #49, 1:100 dilution): 97
- Fluorescence intesity (serum of Pancreas Ca. patient #50, 1:100 dilution): 0
- Fluorescence intesity (serum of Pancreas Ca. patient #51, 1:100 dilution): 0
- Fluorescence intesity (serum of Pancreas Ca. patient #52, 1:100 dilution): 275
- Fluorescence intesity (serum of Pancreas Ca. patient #53, 1:100 dilution): 41
- Fluorescence intesity (serum of Pancreas Ca. patient #54, 1:100 dilution): 48
- Fluorescence intesity (serum of Pancreas Ca. patient #55, 1:100 dilution): 24
- Fluorescence intesity (serum of Uterine cervical Ca. patient #1, 1:100 dilution): 75
- Fluorescence intesity (serum of Uterine cervical Ca. patient #2, 1:100 dilution): 0
- Fluorescence intesity (serum of Uterine cervical Ca. patient #3, 1:100 dilution): 21
- Fluorescence intesity (serum of Uterine cervical Ca. patient #4, 1:100 dilution): 229
- Fluorescence intesity (serum of Uterine cervical Ca. patient #5, 1:100 dilution): 58
- Fluorescence intesity (serum of Uterine cervical Ca. patient #6, 1:100 dilution): 869
- Fluorescence intesity (serum of Uterine cervical Ca. patient #7, 1:100 dilution): 15
- Fluorescence intesity (serum of Uterine cervical Ca. patient #8, 1:100 dilution): 30
- Fluorescence intesity (serum of Uterine cervical Ca. patient #9, 1:100 dilution): 93
- Fluorescence intesity (serum of Uterine cervical Ca. patient #10, 1:100 dilution): 14
- Fluorescence intesity (serum of Uterine cervical Ca. patient #11, 1:100 dilution): 23
- Fluorescence intesity (serum of Uterine cervical Ca. patient #12, 1:100 dilution): 44
- Fluorescence intesity (serum of Uterine cervical Ca. patient #13, 1:100 dilution): 29
- Fluorescence intesity (serum of Uterine cervical Ca. patient #14, 1:100 dilution): 19
- Fluorescence intesity (serum of Uterine cervical Ca. patient #15, 1:100 dilution): 129
- Fluorescence intesity (serum of Uterine cervical Ca. patient #16, 1:100 dilution): 147
- Fluorescence intesity (serum of Uterine cervical Ca. patient #17, 1:100 dilution): 63
- Fluorescence intesity (serum of Uterine cervical Ca. patient #18, 1:100 dilution): 48
- Fluorescence intesity (serum of Uterine cervical Ca. patient #19, 1:100 dilution): 62
- Fluorescence intesity (serum of Uterine cervical Ca. patient #20, 1:100 dilution): 102
- Fluorescence intesity (serum of Uterine cervical Ca. patient #21, 1:100 dilution): 21
- Fluorescence intesity (serum of Uterine cervical Ca. patient #22, 1:100 dilution): 25
- Fluorescence intesity (serum of Uterine cervical Ca. patient #23, 1:100 dilution): 60
- Fluorescence intesity (serum of Uterine cervical Ca. patient #24, 1:100 dilution): 1779
- Fluorescence intesity (serum of Uterine cervical Ca. patient #25, 1:100 dilution): 18
- Fluorescence intesity (serum of Uterine cervical Ca. patient #26, 1:100 dilution): 97
- Fluorescence intesity (serum of Uterine cervical Ca. patient #27, 1:100 dilution): 29
- Fluorescence intesity (serum of Uterine cervical Ca. patient #28, 1:100 dilution): 139
- Fluorescence intesity (serum of Uterine cervical Ca. patient #29, 1:100 dilution): 16
- Fluorescence intesity (serum of Uterine cervical Ca. patient #30, 1:100 dilution): 34
- Fluorescence intesity (serum of Uterine cervical Ca. patient #31, 1:100 dilution): 104
- Fluorescence intesity (serum of Uterine cervical Ca. patient #32, 1:100 dilution): 19
- Fluorescence intesity (serum of Uterine cervical Ca. patient #33, 1:100 dilution): 118
- Fluorescence intesity (serum of Uterine cervical Ca. patient #34, 1:100 dilution): 16
- Fluorescence intesity (serum of Uterine cervical Ca. patient #35, 1:100 dilution): 21
